Source: ChEMBL document CHEMBL4665792 (J Med Chem, 2020)
Calls of active or inactive are those of the source. The rule behind the calls is not given here.

Key:
[1] = Inhibition of Escherichia coli Trx incubated for 1.5 hrs in presence of DTT and insulin
HepG2 = experiment: Antiproliferative activity against human HepG2 cells assessed as reduction in cell viability incubated for 24 hrs by MTT assay; assay type: functional, cell-based; details: HepG2, 24 h
MCF7 = experiment: Antiproliferative activity against human MCF7 cells assessed as reduction in cell viability incubated for 24 hrs by MTT assay; assay type: functional, cell-based; details: MCF7, 24 h
[2] = Inhibition of TrxR in human HT-29 cells incubated for 90 mins in presence of insulin, NADPH and Trx by DTNB reagent based assay; assay type: cell-based
HT-29 [3] = experiment: Inhibition of TrxR in human HT-29 cells incubated for 24 hrs in presence of insulin, NADPH and Trx by DTNB reagent based assay; assay type: cell-based
[4] = Inhibition of TrxR (unknown origin) in presence of NADPH by Ellman's method; design: species or system Homo sapiens
HK-2 = experiment: Cytotoxicity against human HK2 cells assessed as cell viability incubated for 24 hrs by MTT assay; assay type: cell-based; details: HK-2, 24 h
HT-29 [5] = experiment: Antiproliferative activity against human HT-29 cells assessed as reduction in cell viability incubated for 24 hrs by MTT assay; assay type: functional, cell-based; details: HT-29, 24 h
[6] = molecular target: T1, Glutathione reductase, mitochondrial (Homo sapiens) (UniProt P00390); experiment: Inhibition of GR in human HT-29 cells incubated for 24 hrs in presence of GSSG and NADPH; assay type: cell-based
T1 sequence (whole entry): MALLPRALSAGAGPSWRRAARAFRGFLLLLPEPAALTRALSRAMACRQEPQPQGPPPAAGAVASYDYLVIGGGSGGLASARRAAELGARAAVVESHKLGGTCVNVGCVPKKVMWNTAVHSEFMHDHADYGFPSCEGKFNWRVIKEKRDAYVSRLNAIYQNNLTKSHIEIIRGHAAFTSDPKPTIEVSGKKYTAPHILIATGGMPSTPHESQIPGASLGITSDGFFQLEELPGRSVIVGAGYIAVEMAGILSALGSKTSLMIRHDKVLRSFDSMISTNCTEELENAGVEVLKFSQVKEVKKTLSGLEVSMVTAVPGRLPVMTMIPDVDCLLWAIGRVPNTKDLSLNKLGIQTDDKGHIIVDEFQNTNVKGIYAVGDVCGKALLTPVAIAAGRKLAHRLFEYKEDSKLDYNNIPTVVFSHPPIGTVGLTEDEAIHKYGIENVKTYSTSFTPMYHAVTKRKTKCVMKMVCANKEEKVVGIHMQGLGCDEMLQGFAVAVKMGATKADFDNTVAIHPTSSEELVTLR

L02 = experiment: Cytotoxicity against human L02 cells assessed as cell viability incubated for 24 hrs by MTT assay; assay type: cell-based; details: L02, 24 h
[7] = molecular target: T2, Thioredoxin (Homo sapiens) (UniProt P10599); experiment: Inhibition of Trx in human HT-29 cells incubated for 24 hrs in presence of insulin, NADPH and DTT; assay type: cell-based
T2 sequence (whole entry): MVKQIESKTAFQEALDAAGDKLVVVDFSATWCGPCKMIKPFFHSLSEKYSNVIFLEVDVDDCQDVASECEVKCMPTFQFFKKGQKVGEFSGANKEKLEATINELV

[8] = Inhibition of TrxR in human HT-29 cells incubated for 30 mins in presence of insulin, NADPH and Trx by DTNB reagent based assay; assay type: cell-based
[9] = Inhibition of TrxR in human HT-29 cells incubated for 60 mins in presence of insulin, NADPH and Trx by DTNB reagent based assay; assay type: cell-based
[10] = Covalent inhibition of TrxR (unknown origin) assessed as covalent bond formation incubated up to 30 mins in presence of NADPH by Ellman's method; design: species or system Homo sapiens
HT-29 [11] = experiment: Inhibition of GPx in human HT-29 cells incubated for 24 hrs in presence of GSH, NADPH and GR measured at 10 secs interval for 4 mins; assay type: cell-based; details: time 1444.0 min
HCT-116 [12] = experiment: Antiproliferative activity against human HCT-116 cells assessed as reduction in cell viability incubated for 24 hrs by MTT assay; assay type: functional, cell-based; details: HCT-116, 24 h
HT-29 [13] = experiment: Antiproliferation activity against human HT-29 cells assessed as decrease in number of EdU-positive cells at 0.125 to 0.5 uM incubated for 20 hrs followed by addition of EdU-labelling agent measured after 8 hrs by Hoechst-33258 staining based analysis; assay type: functional, cell-based; details: dose microM 0.125-0.500, time 28.0 hrs
HT-29 [14] = experiment: Cell cycle arrest in human HT-29 cells assessed as accumulation at G2/M phase incubated for 24 hrs by propidium iodide staining based flow cytometry; assay type: functional; details: dose microM 0.125-0.5, time 24.0 hrs
HT-29 [15] = experiment: Induction of apoptosis in human HT-29 cells assessed as decrease in expression of Bcl-2 at 0.25 to 1 uM treated for 24 hrs by Western blot analysis; assay type: functional, cell-based
HT-29 [16] = experiment: Inhibition of TrxR in human HT29 cells assessed as increase in p53 to GAPDH expression ratio at 0.25 to 1 uM incubated for 24 hrs by Western blot analysis; assay type: cell-based
HT-29 [17] = experiment: Down regulation of Trx expression in human HT29 cells at 0.25 to 1 uM incubated for 24 hrs by Western blot analysis; assay type: functional, cell-based
Rattus norvegicus [18] = species on record: Rattus norvegicus; experiment: Binding affinity to rat liver TrxR assessed as RSGGDILQSGCUG-adduct formation by measuring retention time at 10 uM incubated for 1.5 hrs by LC-MS/MS analysis
HT-29 [19] = experiment: Inhibition of TrxR in human HT29 cells assessed as decrease in ASK1 to phosphorylated ASK1 expression ratio at 0.25 to 1 uM incubated for 24 hrs by Western blot analysis; assay type: cell-based
[20] = Selectivity index, ratio IC50 for human L02 cells to IC50 for human HT-29 cells; assay type: toxicity; details: L02 cells versus HT-29 cells, read-out: Ratio IC50
HT-29 [21] = experiment: Induction of apoptosis in human HT-29 cells assessed as increase in expression of Bax at 0.25 to 1 uM treated for 24 hrs by Western blot analysis; assay type: functional, cell-based
HT-29 [22] = experiment: Binding affinity to sulfhydryl group in human HT-29 cells assessed as decrease in total content of sulfhydryl groups; assay type: cell-based
[23] = Selectivity index, ratio IC50 for human HK2 cells to IC50 for human HT-29 cells
[24] = Binding affinity to DTT assessed as sulfhydryl group-adduct formation at 5 mg incubated for 1.5 hrs by LC-MS/MS analysis
HT-29 [25] = experiment: Down regulation of TrxR expression in human HT29 cells at 0.25 to 1 uM incubated for 24 hrs by Western blot analysis; assay type: functional, cell-based
HT-29 [26] = experiment: Induction of mitochondrial membrane potential loss in human HT-29 cells assessed as decrease in red to green fluorescence intensity ratio at 0.125 to 1 uM incubated for 24 hrs by JC-1 dye based fluorescence spectrophotometric analysis; assay type: functional, cell-based; details: dose microM 0.125-1, time 24.0 hrs
HT-29 [27] = experiment: Induction of apoptosis in human HT-29 cells assessed as increase in expression of cleaved PARP at 0.25 to 1 uM treated for 24 hrs by Western blot analysis; assay type: functional, cell-based
HT-29 [28] = experiment: Induction of apoptosis in human HT-29 cells assessed as cell death at 0.25 to 1 uM incubated for 24 hrs by Annexin V-FITC/propidium iodide staining based flow cytometry; assay type: functional
[29] = Binding affinity to NAC assessed as sulfhydryl group-adduct formation at 5 mg by online NMR analysis
HCT-116 [30] = experiment: Inhibition of TrxR in human HCT-116 cells assessed as increase in production of intracellular ROS incubated for 24 hrs by DCFH-DA staining-based flow cytometric analysis; assay type: cell-based
HT-29 [31] = experiment: Induction of apoptosis in human HT-29 cells assessed as increase in expression of cleaved caspase-3 at 0.25 to 1 uM treated for 24 hrs by western blot analysis; assay type: functional, cell-based
HT-29 [32] = experiment: Antiproliferation activity against human HT-29 cells assessed as reduction in monoclonal ability incubated for 24 hrs followed by fresh medium supplementation every 2 to 3 days for 14 days by crystal violet staining based analysis; assay type: functional, cell-based; details: dose microM 0.015-0.06, time 24.0 hrs
HT-29 [33] = experiment: Potency index, ratio of Withangulatin A IC50 to test compound IC50 for antiproliferative activity against human HT-29 cells assessed as reduction in cell viability; assay type: functional
Homo sapiens = species on record: Homo sapiens; experiment: Inhibition of TrxR (unknown origin) at 5 uM in presence of NADPH by Ellman's method
HT-29 [34] = experiment: Inhibition of TrxR in human HT-29 cells assessed as increase in production of intracellular ROS incubated for 24 hrs by DCFH-DA staining-based flow cytometric analysis; assay type: cell-based
[35] = Binding affinity to NAC assessed as sulfhydryl group-adduct formation at 5 mg incubated for 1.5 hrs by LC-MS/MS analysis
Rattus norvegicus [36] = species on record: Rattus norvegicus; experiment: Binding affinity to rat liver TrxR assessed as SGGDILQSGCUG-adduct formation by measuring retention time at 10 uM incubated for 1.5 hrs by LC-MS/MS analysis

Compound: CC(=O)O[C@H]1C=C([C@H](C)[C@H]2CC(C)=C(C)C(=O)O2)[C@@]2(C)CC[C@H]3[C@@H](C[C@H]4O[C@]45[C@@H](O)C=CC(=O)[C@]35C)[C@]12O
- IC50 [1]: > 2500 nM
- IC50 (HepG2): 2850 nM
- IC50 (MCF7): 6320 nM
- IC50 [2]: 2640 nM
- inhibition (HT-29 [3]): Active
- IC50 [4]: 2640 nM
- IC50 (HK-2): 6410 nM
- IC50 (HT-29 [5]): 2480 nM
- inhibition [6]: Active
- IC50 (L02): 8210 nM
- inhibition [7]: Active
- IC50 [8]: 4920 nM
- IC50 [9]: 3350 nM
- Ki [10]: 9120 nM
- inhibition (HT-29 [11]): Active
- IC50 (HCT-116 [12]): 2370 nM

Compound: CC(=O)O[C@H]1C=C([C@H](C)[C@H]2CC(C)=C(C)C(=O)O2)[C@@]2(C)CC[C@H]3[C@@H](C[C@H]4O[C@]45[C@@H](OC(=O)/C=C/C(=O)N(C)C)C=CC(=O)[C@]35C)[C@]12O
- Activity (HT-29 [13]): Active
- IC50 [1]: > 2500 nM
- IC50 (HepG2): 110 nM
- IC50 (MCF7): 330 nM
- Activity (HT-29 [14]): Dose-dependent effect
- Activity (HT-29 [15]): Active
- IC50 [2]: 850 nM
- inhibition (HT-29 [16]): Active
- inhibition (HT-29 [3]): Active
- Activity (HT-29 [17]): Active
- IC50 [4]: 850 nM
- Retention time (Rattus norvegicus [18]): 33.9 min
- inhibition (HT-29 [19]): Active
- selectivity ratio [20]: 66
- Activity (HT-29 [21]): Active
- IC50 (HK-2): 4530 nM
- Activity (HT-29 [22]): Active
- Ratio IC50 [23]: 56
- Activity [24]: Active
- Activity (HT-29 [25]): Active
- IC50 (HT-29 [5]): 80 nM
- Activity (HT-29 [26]): Active
- inhibition [6]: Active
- Activity (HT-29 [27]): Active
- IC50 (L02): 5250 nM
- Activity (HT-29 [28]): Active
- inhibition [7]: Active
- Activity [29]: Active
- IC50 [8]: 970 nM
- inhibition (HCT-116 [30]): Dose-dependent effect
- Activity (HT-29 [31]): Active
- IC50 [9]: 870 nM
- Activity (HT-29 [32]): Dose-dependent effect
- Ratio IC50 (HT-29 [33]): 30
- Ki [10]: 932 nM
- inhibition (Homo sapiens): Active
- inhibition (HT-29 [34]): Dose-dependent effect
- Activity [35]: Active
- inhibition (HT-29 [11]): Active
- IC50 (HCT-116 [12]): 130 nM
- Retention time (Rattus norvegicus [36]): 31.7 min
